# According to US20020137929A1, “1 - (3-heterocyclylphenyl) isothiourea, -isourea, -guanidine and -amidine herbicidal agents” (Intellectual Property Department, BASF Aktiengesellschaft, priority 1998, published 2002):
# Assays:
# ORYSAT (Rice, Tebonnet) = experiment: Postemergence herbicidal evaluation; format: in vivo, Oryza sativa, (L.) Tebonnet; settings: postemergence
# Procedure, shortened: (§1)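 Visual 0-9 injury score (stand, vigor, malformation, size, chlorosis, appearance vs untreated) taken four to five weeks post-spray, averaged across repeat tests. Test plants about two weeks old; foliar spray of acetone/water (1:1) with 0.5% surfactant delivering ~0.0156-0.500 kg active/ha.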
# ECHCG (Barnyardgrass) [1] = experiment: Preemergence herbicidal evaluation; format: in vivo, Echinochloa crus-galli; settings: rated 4-5 weeks after treatment, rating scale 0-9
# Procedure, shortened: (§2)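 Visual 0-9 rating vs control (stand, vigor, malformation, size, chlorosis, overall appearance), scored 4-5 wk after spraying. Seeded soil cups were treated preemergence with compound in aqueous acetone, ~0.0156-0.500 kg/ha equivalent.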
# SETVI (Foxtail, Green) = experiment: Postemergence herbicidal evaluation; format: in vivo, Setaria viridis; settings: postemergence
# Procedure, shortened: as §1
# CASOB (Sicklepod) = experiment: Preemergence herbicidal evaluation; format: in vivo, Cassia obtusifolia; settings: rated 4-5 weeks after treatment, rating scale 0-9
# Procedure, shortened: as §2
# [2] = tested on: GLXMAW (Soybean, Williams); experiment: Preemergence herbicidal evaluation; format: in vivo, Glycine max, (L.) Merr. cv Williams; settings: rated 4-5 weeks after treatment, rating scale 0-9
# Procedure, shortened: as §2
# ABUTH (Velvetleaf) [3] = experiment: Preemergence herbicidal evaluation; format: in vivo, Abutilon theophrasti; settings: rated 4-5 weeks after treatment, rating scale 0-9
# Procedure, shortened: as §2
# [4] = tested on: CHEAL (Lambsquarters, Common); experiment: Postemergence herbicidal evaluation; format: in vivo, Chenopodium album; settings: postemergence
# Procedure, shortened: as §1
# ABUTH (Velvetleaf) [5] = experiment: Postemergence herbicidal evaluation; format: in vivo, Abutilon theophrasti; settings: postemergence
# Procedure, shortened: as §1
# ZEAMX (Corn, Field) [6] = experiment: Preemergence herbicidal evaluation; format: in vivo, Zea mays; settings: rated 4-5 weeks after treatment, rating scale 0-9
# Procedure, shortened: as §2
# ECHCG (Barnyardgrass) [7] = experiment: Postemergence herbicidal evaluation; format: in vivo, Echinochloa crus-galli; settings: postemergence
# Procedure, shortened: as §1
# [8] = tested on: IPOHE (Morningglory, Ivyleaf); experiment: Preemergence herbicidal evaluation; format: in vivo, Ipomoea hederacea; settings: rated 4-5 weeks after treatment, rating scale 0-9
# Procedure, shortened: as §2
# [9] = tested on: TRZAWR (Wheat, Winter, cv Riband); experiment: Preemergence herbicidal evaluation; format: in vivo, Triticum aestivum; settings: rated 4-5 weeks after treatment, rating scale 0-9
# Procedure, shortened: as §2
# ZEAMX (Corn, Field) [10] = experiment: Postemergence herbicidal evaluation; format: in vivo, Zea mays; settings: postemergence
# Procedure, shortened: as §1
# [11] = tested on: IPOHE (Morningglory, Ivyleaf); experiment: Postemergence herbicidal evaluation; format: in vivo, Ipomoea hederacea; settings: postemergence
# Procedure, shortened: as §1
# [12] = tested on: CHEAL (Lambsquarters, Common); experiment: Preemergence herbicidal evaluation; format: in vivo, Chenopodium album; settings: rated 4-5 weeks after treatment, rating scale 0-9
# Procedure, shortened: as §2
smiles,measurement,setting,value
C=C1SC(=Nc2cc(-n3c(=O)cc(C(F)(F)F)n(C)c3=O)c(F)cc2Cl)N(CC(=O)OCC)C1=O [Compound 154],Herbicidal rating ORYSAT,"ORYSAT (Rice, Tebonnet); rate 0.0156 kg/ha",0.5
same,Herbicidal rating ORYSAT,"ORYSAT (Rice, Tebonnet); rate 0.0313 kg/ha",1.5
same,Herbicidal rating ORYSAT,"ORYSAT (Rice, Tebonnet); rate 0.0625 kg/ha",2.0
same,Preemergence herbicidal rating ECHCG,ECHCG (Barnyardgrass) [1]; rate 0.0156 kg/ha,0.0
same,Preemergence herbicidal rating ECHCG,ECHCG (Barnyardgrass) [1]; rate 0.0313 kg/ha,4.0
same,Preemergence herbicidal rating ECHCG,ECHCG (Barnyardgrass) [1]; rate 0.0625 kg/ha,9.0
same,Preemergence herbicidal rating ECHCG,ECHCG (Barnyardgrass) [1]; rate 0.1250 kg/ha,9.0
same,Preemergence herbicidal rating ECHCG,ECHCG (Barnyardgrass) [1]; rate 0.2500 kg/ha,9.0
same,Herbicidal rating SETVI,"SETVI (Foxtail, Green); rate 0.0156 kg/ha",0.0
same,Herbicidal rating SETVI,"SETVI (Foxtail, Green); rate 0.0313 kg/ha",0.0
same,Herbicidal rating SETVI,"SETVI (Foxtail, Green); rate 0.0625 kg/ha",5.0
same,Preemergence herbicidal rating CASOB,CASOB (Sicklepod); rate 0.0156 kg/ha,0.0
same,Preemergence herbicidal rating CASOB,CASOB (Sicklepod); rate 0.0313 kg/ha,0.0
same,Preemergence herbicidal rating CASOB,CASOB (Sicklepod); rate 0.0625 kg/ha,9.0
same,Preemergence herbicidal rating CASOB,CASOB (Sicklepod); rate 0.1250 kg/ha,9.0
same,Preemergence herbicidal rating CASOB,CASOB (Sicklepod); rate 0.2500 kg/ha,9.0
same,Preemergence herbicidal rating GLXMAW,[2]; rate 0.0156 kg/ha,0.0
same,Preemergence herbicidal rating GLXMAW,[2]; rate 0.0313 kg/ha,2.0
same,Preemergence herbicidal rating GLXMAW,[2]; rate 0.0625 kg/ha,5.0
same,Preemergence herbicidal rating GLXMAW,[2]; rate 0.2500 kg/ha,8.0
same,Preemergence herbicidal rating ABUTH,ABUTH (Velvetleaf) [3]; rate 0.0156 kg/ha,9.0
same,Preemergence herbicidal rating ABUTH,ABUTH (Velvetleaf) [3]; rate 0.0313 kg/ha,9.0
same,Preemergence herbicidal rating ABUTH,ABUTH (Velvetleaf) [3]; rate 0.0625 kg/ha,9.0
same,Preemergence herbicidal rating ABUTH,ABUTH (Velvetleaf) [3]; rate 0.1250 kg/ha,9.0
same,Preemergence herbicidal rating ABUTH,ABUTH (Velvetleaf) [3]; rate 0.2500 kg/ha,9.0
same,Herbicidal rating CHEAL,[4]; rate 0.0156 kg/ha,9.0
same,Herbicidal rating CHEAL,[4]; rate 0.0313 kg/ha,9.0
same,Herbicidal rating CHEAL,[4]; rate 0.0625 kg/ha,9.0
same,Herbicidal rating ABUTH,ABUTH (Velvetleaf) [5]; rate 0.0156 kg/ha,9.0
same,Herbicidal rating ABUTH,ABUTH (Velvetleaf) [5]; rate 0.0313 kg/ha,9.0
same,Herbicidal rating ABUTH,ABUTH (Velvetleaf) [5]; rate 0.0625 kg/ha,9.0
same,Preemergence herbicidal rating ZEAMX,"ZEAMX (Corn, Field) [6]; rate 0.0156 kg/ha",5.0
same,Preemergence herbicidal rating ZEAMX,"ZEAMX (Corn, Field) [6]; rate 0.0313 kg/ha",7.0
same,Preemergence herbicidal rating ZEAMX,"ZEAMX (Corn, Field) [6]; rate 0.0625 kg/ha",8.0
same,Preemergence herbicidal rating ZEAMX,"ZEAMX (Corn, Field) [6]; rate 0.1250 kg/ha",9.0
same,Preemergence herbicidal rating ZEAMX,"ZEAMX (Corn, Field) [6]; rate 0.2500 kg/ha",9.0
same,Herbicidal rating ECHCG,ECHCG (Barnyardgrass) [7]; rate 0.0156 kg/ha,0.0
same,Herbicidal rating ECHCG,ECHCG (Barnyardgrass) [7]; rate 0.0313 kg/ha,0.0
same,Herbicidal rating ECHCG,ECHCG (Barnyardgrass) [7]; rate 0.0625 kg/ha,0.0
same,Preemergence herbicidal rating IPOHE,[8]; rate 0.0156 kg/ha,0.0
same,Preemergence herbicidal rating IPOHE,[8]; rate 0.0313 kg/ha,9.0
same,Preemergence herbicidal rating IPOHE,[8]; rate 0.0625 kg/ha,9.0
same,Preemergence herbicidal rating IPOHE,[8]; rate 0.1250 kg/ha,9.0
same,Preemergence herbicidal rating IPOHE,[8]; rate 0.2500 kg/ha,9.0
same,Preemergence herbicidal rating TRZAWR,[9]; rate 0.0156 kg/ha,0.0
same,Preemergence herbicidal rating TRZAWR,[9]; rate 0.0313 kg/ha,2.0
same,Preemergence herbicidal rating TRZAWR,[9]; rate 0.0625 kg/ha,8.0
same,Preemergence herbicidal rating TRZAWR,[9]; rate 0.1250 kg/ha,8.0
same,Preemergence herbicidal rating TRZAWR,[9]; rate 0.2500 kg/ha,9.0
same,Herbicidal rating ZEAMX,"ZEAMX (Corn, Field) [10]; rate 0.0156 kg/ha",4.0
same,Herbicidal rating ZEAMX,"ZEAMX (Corn, Field) [10]; rate 0.0313 kg/ha",4.0
same,Herbicidal rating ZEAMX,"ZEAMX (Corn, Field) [10]; rate 0.0625 kg/ha",5.0
same,Herbicidal rating IPOHE,[11]; rate 0.0156 kg/ha,9.0
same,Herbicidal rating IPOHE,[11]; rate 0.0313 kg/ha,9.0
same,Herbicidal rating IPOHE,[11]; rate 0.0625 kg/ha,9.0
same,Preemergence herbicidal rating CHEAL,[12]; rate 0.0156 kg/ha,9.0
same,Preemergence herbicidal rating CHEAL,[12]; rate 0.0313 kg/ha,9.0
same,Preemergence herbicidal rating CHEAL,[12]; rate 0.0625 kg/ha,9.0
same,Preemergence herbicidal rating CHEAL,[12]; rate 0.1250 kg/ha,9.0
same,Preemergence herbicidal rating CHEAL,[12]; rate 0.2500 kg/ha,9.0
